Experimental data from patent US9796711B2, “Substituted pyrazolo[3,4-b]pyridin-6-carboxylic acids and method of use” (AbbVie S.àr.l., priority 2015, dated 2017).

Assays:
ΔF508-CFTR [1] = biological target: T1, ΔF508-CFTR (Homo sapiens, UniProt P13569, DEL508-508); test: CFTR cell surface levels using HRP-tagged ΔF508-CFTR expressing CFBE cells, in the presence of a co-corrector; assay type: cell-based; details: HRP-tagged ΔF508-CFTR expressing CFBE cells, in the presence of 3 μM co-corrector; for EC50: read-out: EC50
T1 construct: host or cells: CFBE41o-, doxycycline-inducible
T1 sequence (P13569 with tags, fused parts or gaps DEL508-508): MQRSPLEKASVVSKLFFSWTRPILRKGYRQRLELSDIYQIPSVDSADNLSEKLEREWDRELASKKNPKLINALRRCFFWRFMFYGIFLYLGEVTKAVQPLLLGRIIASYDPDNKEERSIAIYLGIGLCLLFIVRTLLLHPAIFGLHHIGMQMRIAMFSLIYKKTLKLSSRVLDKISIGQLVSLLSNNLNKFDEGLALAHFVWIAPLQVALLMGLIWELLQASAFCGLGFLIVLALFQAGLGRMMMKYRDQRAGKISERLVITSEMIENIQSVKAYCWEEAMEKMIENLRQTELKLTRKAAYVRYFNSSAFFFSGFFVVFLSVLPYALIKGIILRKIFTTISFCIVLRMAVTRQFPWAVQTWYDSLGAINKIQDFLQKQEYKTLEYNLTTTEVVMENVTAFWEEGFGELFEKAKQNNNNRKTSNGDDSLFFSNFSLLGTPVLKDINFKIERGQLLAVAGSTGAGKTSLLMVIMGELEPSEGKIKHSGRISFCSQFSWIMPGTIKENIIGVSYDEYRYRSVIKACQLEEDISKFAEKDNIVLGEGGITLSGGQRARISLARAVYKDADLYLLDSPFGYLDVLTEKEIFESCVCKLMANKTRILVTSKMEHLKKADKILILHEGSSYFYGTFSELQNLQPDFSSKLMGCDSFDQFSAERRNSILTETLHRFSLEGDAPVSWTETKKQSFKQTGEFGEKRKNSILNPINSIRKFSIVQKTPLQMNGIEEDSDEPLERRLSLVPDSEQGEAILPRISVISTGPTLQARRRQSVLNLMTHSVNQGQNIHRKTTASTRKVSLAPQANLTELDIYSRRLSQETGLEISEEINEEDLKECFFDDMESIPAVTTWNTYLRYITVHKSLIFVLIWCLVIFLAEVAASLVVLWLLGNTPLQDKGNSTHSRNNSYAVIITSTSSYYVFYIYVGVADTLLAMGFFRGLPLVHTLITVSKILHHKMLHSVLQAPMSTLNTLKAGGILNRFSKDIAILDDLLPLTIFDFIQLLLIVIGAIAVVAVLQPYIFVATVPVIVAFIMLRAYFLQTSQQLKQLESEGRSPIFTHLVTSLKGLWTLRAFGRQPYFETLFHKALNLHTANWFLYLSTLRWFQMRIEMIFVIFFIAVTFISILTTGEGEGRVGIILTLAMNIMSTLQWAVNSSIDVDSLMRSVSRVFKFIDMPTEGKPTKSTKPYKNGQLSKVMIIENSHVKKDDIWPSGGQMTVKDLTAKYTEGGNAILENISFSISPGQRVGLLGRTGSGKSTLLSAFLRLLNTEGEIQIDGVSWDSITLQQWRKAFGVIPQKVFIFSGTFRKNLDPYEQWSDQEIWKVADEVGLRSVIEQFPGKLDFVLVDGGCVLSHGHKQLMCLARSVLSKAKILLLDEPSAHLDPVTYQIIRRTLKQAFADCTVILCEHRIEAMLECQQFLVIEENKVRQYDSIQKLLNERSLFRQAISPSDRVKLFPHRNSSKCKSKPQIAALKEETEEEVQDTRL
Method in brief: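 Cells were seeded with 0.5 μg/mL doxycycline and held 68 h at 37 °C. Test compounds plus 3 μM co-corrector (final 0.1% DMSO) were then added for 20 h at 33 °C. Washed cells received HRP substrate, and luminescence was normalized between DMSO and 3 μM co-corrector controls.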

ΔF508-CFTR [2] = biological target: T1, ΔF508-CFTR; test: CFTR cell surface levels using HRP-tagged ΔF508-CFTR expressing CFBE cells, intrinsic corrector capacity; assay type: cell-based; details: for EC50: read-out: EC50
Method in brief: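 Here the cells express ΔF508-CFTR with horseradish peroxidase inserted in extracellular loop 4, so only rescued channel at the surface gives luminescent signal. Compounds act on their own, 20 h at the reduced temperature of 33 °C; values are percent activity relative to DMSO and a 3 μM corrector.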

[3] = HRP-tagged ΔF508-CFTR expressing CFBE cells, intrinsic corrector capacity (no co-corrector), 33° C., 20 hours
[4] = HRP-tagged ΔF508-CFTR CFBE41o- cells, compounds alone (intrinsic corrector capacity), 20 hours at 33° C., positive control 3 μM corrector
[5] = HRP-tagged ΔF508-CFTR CFBE41o- cells, compounds alone (intrinsic corrector capacity), 20 hours at 33° C.

Structure (SMILES) | % Activation (ΔF508-CFTR [1]) [%] | EC50 (ΔF508-CFTR [1]) [nM] | % Activation (ΔF508-CFTR [2]; [3]) [%] | EC50 (ΔF508-CFTR [2]; [3]) [nM] | % Activation (ΔF508-CFTR [2]; [4]) [%] | EC50 (ΔF508-CFTR [2]; [5]) [nM]
O=C(O)c1cc(N2CC(F)(F)C[C@@H]2CO)c2c(C3CCC3)nn(-c3ccccc3)c2n1 [compound 506, 3-cyclobutyl-4-[(2R)-4,4-difluoro-2-(hydroxymethyl)pyrrolidin-1-yl]-1-phenyl-1H-pyrazolo[3,4-b]pyridine-6-carboxylic acid] | 137.7 | > 10000 | 40.12 | 3340 |  | 
CC(C)c1nn(C2CCCCC2)c2nc(C(=O)O)cc(-c3ccn(C)c3)c12 [compound 351, 1-cyclohexyl-4-(1-methyl-1H-pyrrol-3-yl)-3-(propan-2-yl)-1H-pyrazolo[3,4-b]pyridine-6-carboxylic acid] | 256.6 | 1520 |  |  | 84.055 | 1610
CO[C@H]1CCCC[C@@H]1Oc1cc(C(=O)O)nc2c1c(C1CCC1)nn2-c1ccccc1 [compound 580, 3-cyclobutyl-4-{[(1S,2S)-2-methoxycyclohexyl]oxy}-1-phenyl-1H-pyrazolo[3,4-b]pyridine-6-carboxylic acid] | 288 | 312 | 88.82 | 333 |  | 
CC(=O)N1CCN(c2cc(C(=O)O)nc3c2c(C(C)C)nn3-c2ccc(F)cc2)CC1 [compound 771, 4-(4-acetylpiperazin-1-yl)-1-(4-fluorophenyl)-3-(propan-2-yl)-1H-pyrazolo[3,4-b]pyridine-6-carboxylic acid] | 290.8 | 1670 | 94.91 | 1670 |  | 
Cc1nn(-c2ccccc2)c2nc(C(=O)O)cc(OC3COC3)c12 [compound 341, 3-methyl-4-[(oxetan-3-yl)oxy]-1-phenyl-1H-pyrazolo[3,4-b]pyridine-6-carboxylic acid] | 149.55 | 4090 |  |  | 25.115 | 4170
CC(C)c1nn(-c2ccc(F)cc2F)c2nc(C(=O)O)cc(-c3ccc(N4CCC(C#N)CC4)nc3)c12 [compound 326, 4-[6-(4-cyanopiperidin-1-yl)pyridin-3-yl]-1-(2,4-difluorophenyl)-3-(propan-2-yl)-1H-pyrazolo[3,4-b]pyridine-6-carboxylic acid] | 360.83 | 574 |  |  | 180.53 | 977
CN(C)c1ccc(-n2nc(C3CCC3)c3c(-c4ccc(N5CCOCC5)cc4)cc(C(=O)O)nc32)cc1 [compound 357, 3-cyclobutyl-1-[4-(dimethylamino)phenyl]-4-[4-(morpholin-4-yl)phenyl]-1H-pyrazolo[3,4-b]pyridine-6-carboxylic acid] | 274.8 | 806 |  |  | 113.47 | 885
CC(C)c1nn(C2CCCCC2)c2nc(C(=O)O)cc(-c3ccc(N4CCOCC4)nc3)c12 [compound 81, 1-cyclohexyl-4-[6-(morpholin-4-yl)pyridin-3-yl]-3-(propan-2-yl)-1H-pyrazolo[3,4-b]pyridine-6-carboxylic acid] | 398.25 | 570 |  |  | 193.6 | 744
Cc1nn(-c2ccccc2)c2nc(C(=O)O)cc(-c3ccc(N4C[C@@H](O)[C@H](O)C4)cc3)c12 [compound 116, 4-{4-[(3R,4R)-3,4-dihydroxypyrrolidin-1-yl]phenyl}-3-methyl-1-phenyl-1H-pyrazolo[3,4-b]pyridine-6-carboxylic acid] | 262.7 | 3340 |  |  | 81.72 | 3340
O=C(O)c1cc(N2CCC(COCc3ccccc3)CC2)c2c(C3CCC3)nn(-c3ccccc3)c2n1 [compound 427, 4-{4-[(benzyloxy)methyl]piperidin-1-yl}-3-cyclobutyl-1-phenyl-1H-pyrazolo[3,4-b]pyridine-6-carboxylic acid] | 418.9 | 577 | 200.4 | 663 |  | 
Cc1nn(-c2ccccc2)c2nc(C(=O)O)cc(O[C@@H]3CCCN(C)C3)c12 [compound 343, 3-methyl-4-{[(3R)-1-methylpiperidin-3-yl]oxy}-1-phenyl-1H-pyrazolo[3,4-b]pyridine-6-carboxylic acid] | 104.7 | 7500 |  |  | 11.085 | 7500
Cc1nn(C2CCCCC2)c2nc(C(=O)O)cc(-c3ccc(N4CCOCC4)nc3)c12 [compound 74, 1-cyclohexyl-3-methyl-4-[6-(morpholin-4-yl)pyridin-3-yl]-1H-pyrazolo[3,4-b]pyridine-6-carboxylic acid] | 257.2 | 1480 |  |  | 116.7 | 2560
CC(C)c1nn(-c2cccc(N3CCCC3)c2)c2nc(C(=O)O)cc(-c3ccc(N4CCC(C#N)CC4)cc3)c12 [compound 221, 4-[4-(4-cyanopiperidin-1-yl)phenyl]-3-(propan-2-yl)-1-[3-(pyrrolidin-1-yl)phenyl]-1H-pyrazolo[3,4-b]pyridine-6-carboxylic acid] | 645.97 | 283 |  |  | 429 | 315
COC1CCCN(c2cc(C(=O)O)nc3c2c(C(C)C)nn3-c2cccc(C)c2)C1 (centres unmarked) [compound 190, 4-(3-methoxypiperidin-1-yl)-1-(3-methylphenyl)-3-(propan-2-yl)-1H-pyrazolo[3,4-b]pyridine-6-carboxylic acid] | 301.85 | 634 |  |  | 136.12 | 929
COC(C)(C)C1CCN(c2cc(C(=O)O)nc3c2c(C(C)C)nn3-c2ccc(F)cc2)CC1 [compound 438, 1-(4-fluorophenyl)-4-[4-(2-methoxypropan-2-yl)piperidin-1-yl]-3-(propan-2-yl)-1H-pyrazolo[3,4-b]pyridine-6-carboxylic acid] | 507.27 | 387 | 277.03 | 331 |  | 
O=C1CC[C@H](COc2cc(C(=O)O)nc3c2c(C2CCC2)nn3-c2ccccc2)N1 [compound 617, 3-cyclobutyl-4-{[(2R)-5-oxopyrrolidin-2-yl]methoxy}-1-phenyl-1H-pyrazolo[3,4-b]pyridine-6-carboxylic acid] | 127.3 | > 10000 | 7.139 | > 10000 |  | 
Cc1nn(-c2ccccc2)c2nc(C(=O)O)cc(N3CCN(S(C)(=O)=O)CC3)c12 [compound 146, 4-[4-(methanesulfonyl)piperazin-1-yl]-3-methyl-1-phenyl-1H-pyrazolo[3,4-b]pyridine-6-carboxylic acid] | 134.9 | > 10000 |  |  | 8.92 | > 10000
CC(C)c1nn(-c2cccc(F)c2)c2nc(C(=O)O)cc(-c3cnc(N(C)C4CCOCC4)nc3)c12 [compound 316, 1-(3-fluorophenyl)-4-{2-[methyl(oxan-4-yl)amino]pyrimidin-5-yl}-3-(propan-2-yl)-1H-pyrazolo[3,4-b]pyridine-6-carboxylic acid] | 435.6 | 308 |  |  | 218.87 | 565
O=C(O)c1cc(N2CCC(CN3CCCOCC3)CC2)c2c(C3CCC3)nn(-c3ccccc3)c2n1 [compound 834, 3-cyclobutyl-4-{4-[(1,4-oxazepan-4-yl)methyl]piperidin-1-yl}-1-phenyl-1H-pyrazolo[3,4-b]pyridine-6-carboxylic acid] | 403 | 114 | 227.9 | 241 |  | 
CC(C)c1nn(-c2cccc(N3CCOCC3)c2)c2nc(C(=O)O)cc(-c3ccc(N4CCC(C#N)CC4)nc3)c12 [compound 178] | 591 | 458 |  |  | 415 | 628
CCC1(COc2cc(C(=O)O)nc3c2c(C2CCC2)nn3-c2ccccc2)COC1 [compound 581, 3-cyclobutyl-4-[(3-ethyloxetan-3-yl)methoxy]-1-phenyl-1H-pyrazolo[3,4-b]pyridine-6-carboxylic acid] | 377.8 | 203 | 146 | 250 |  | 
O=C(O)c1cc(N2CCN(CC3OCCO3)CC2)c2c(C3CCC3)nn(-c3ccccc3)c2n1 [compound 684, 3-cyclobutyl-4-{4-[(1,3-dioxolan-2-yl)methyl]piperazin-1-yl}-1-phenyl-1H-pyrazolo[3,4-b]pyridine-6-carboxylic acid] | 384.65 | 236 | 230.2 | 380 |  | 
CC(C)c1nn(-c2cccc(N3CCCC3)c2)c2nc(C(=O)O)cc(-c3cnc(N4CCC(C#N)CC4)nc3)c12 [compound 259, 4-[2-(4-cyanopiperidin-1-yl)pyrimidin-5-yl]-3-(propan-2-yl)-1-[3-(pyrrolidin-1-yl)phenyl]-1H-pyrazolo[3,4-b]pyridine-6-carboxylic acid] | 673.9 | 1010 |  |  | 438.95 | 1130
